{"source": "BindingDB's records for patent US20240083857", "about": "(Bayer Pharma Aktiengesellschaft, 2024)", "target": "Epidermal growth factor receptor (Homo sapiens, UniProt P00533)", "sequence (P00533 whole entry)": "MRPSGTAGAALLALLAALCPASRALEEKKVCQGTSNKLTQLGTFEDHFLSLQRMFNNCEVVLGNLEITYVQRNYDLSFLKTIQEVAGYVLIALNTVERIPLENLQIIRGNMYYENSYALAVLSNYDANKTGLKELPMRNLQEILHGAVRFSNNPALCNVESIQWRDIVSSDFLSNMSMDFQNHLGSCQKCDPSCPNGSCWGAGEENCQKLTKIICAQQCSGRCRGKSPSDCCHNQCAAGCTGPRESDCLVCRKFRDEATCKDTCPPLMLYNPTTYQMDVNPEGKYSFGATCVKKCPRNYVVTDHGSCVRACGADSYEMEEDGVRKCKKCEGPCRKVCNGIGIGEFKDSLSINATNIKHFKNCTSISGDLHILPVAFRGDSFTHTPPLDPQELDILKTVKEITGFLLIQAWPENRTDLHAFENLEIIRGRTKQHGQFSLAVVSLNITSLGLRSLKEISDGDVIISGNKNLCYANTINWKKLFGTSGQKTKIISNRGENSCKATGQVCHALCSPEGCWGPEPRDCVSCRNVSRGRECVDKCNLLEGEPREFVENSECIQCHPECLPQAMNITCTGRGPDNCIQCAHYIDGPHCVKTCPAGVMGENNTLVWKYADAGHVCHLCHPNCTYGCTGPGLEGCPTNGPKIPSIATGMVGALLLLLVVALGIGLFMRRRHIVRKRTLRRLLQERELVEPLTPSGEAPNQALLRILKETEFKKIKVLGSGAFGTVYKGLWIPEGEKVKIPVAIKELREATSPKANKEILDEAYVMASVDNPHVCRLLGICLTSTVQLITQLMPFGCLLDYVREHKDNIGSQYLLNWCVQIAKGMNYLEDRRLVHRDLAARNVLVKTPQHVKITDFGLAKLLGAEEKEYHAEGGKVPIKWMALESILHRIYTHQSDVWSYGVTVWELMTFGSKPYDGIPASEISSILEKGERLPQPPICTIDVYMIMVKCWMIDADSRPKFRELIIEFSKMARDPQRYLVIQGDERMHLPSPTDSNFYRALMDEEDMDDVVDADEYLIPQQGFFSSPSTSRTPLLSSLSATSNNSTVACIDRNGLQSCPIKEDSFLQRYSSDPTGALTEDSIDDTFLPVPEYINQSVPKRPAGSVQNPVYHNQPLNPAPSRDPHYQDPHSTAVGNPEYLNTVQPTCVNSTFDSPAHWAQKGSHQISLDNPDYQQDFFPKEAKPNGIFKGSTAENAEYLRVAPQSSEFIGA", "assay": "EGFR Kinase Assay", "experimental": "For the assay 50 nL of a 100 fold concentrated solution of the test compound in DMSO was pipetted into a black low volume 384 well microtiter plate (Greiner Bio-One, Frickenhausen, Germany), 2 μL of a solution of EGFR in aqueous assay buffer [50 mM Hepes/HCl pH 7.0, 1 mM MgCl2, 5 mM MnCl2, 0.5 mM activated sodium ortho-vanadate, 0.005% (v/v) Tween-20]were added and the mixture was incubated for 15 min at 22° C. to allow pre-binding of the test compounds to the enzyme before the start of the kinase reaction. […] The concentration of EGFR was adjusted depending of the activity of the enzyme lot and was chosen appropriate to have the assay in the linear range, typical concentration were about 3 U/ml. The reaction was stopped by the addition of 5 μl of a solution of HTRF detection reagents (0.1 μM streptavidine-XL665 [Cis Biointernational] and 1 nM PT66-Tb-Cryptate, an terbium-cryptate labelled anti-phospho-tyrosine antibody from Cis Biointernational [instead of the PT66-Tb-cryptate PT66-Eu-Chelate from Perkin Elmer can also be used]) in an aqueous EDTA-solution (80 mM EDTA, 0.2% (w/v) bovine serum albumin in 50 mM HEPES pH 7.5).The resulting mixture was incubated 1 h at 22° C. to allow the binding of the biotinylated phosphorylated peptide to the streptavidine-XL665 and the PT66-Eu-Chelate. Subsequently the amount of phosphorylated substrate was evaluated by measurement of the resonance energy transfer from the PT66-Tb-Cryptate to the streptavidine-XL665.", "note": "pIC50: −log10 of the molar value."}
{"molecule": "Cc1nc(N[C@H](C)c2ccccc2)c2cc(Br)ccc2n1", "note": "[US20240083857, Example 29]", "values": [{"measurement": "pIC50", "value": "< 4.70"}]}
{"molecule": "Cc1nc(N[C@H](C)c2ccc(F)cc2)c2cc(Br)ccc2n1", "note": "[US20240083857, Example 31]", "values": [{"measurement": "pIC50", "value": "< 4.70"}]}
{"molecule": "COc1cc2nc(C)nc(N[C@H](C)c3cc4cccc(OC)c4o3)c2cc1OC", "note": "[US20240083857, Example 33]", "values": [{"measurement": "pIC50", "value": "< 4.70"}]}
{"molecule": "COc1cc2nc(C)nc(N[C@H](C)c3ccc(C#N)cc3)c2cc1OC", "note": "[US20240083857, Example 189]", "values": [{"measurement": "pIC50", "value": "< 4.70"}]}
{"molecule": "COc1cc2nc(C)nc(NC(C)c3ccc(-c4ccccc4CNCC(N)=O)s3)c2cc1OC", "note": "(stereo unspecified) [US20240083857, Example 279]", "values": [{"measurement": "pIC50", "value": "< 4.70"}]}
{"molecule": "COc1cc2nc(C)nc(NC(C)c3ccc(-c4ccccc4CNCC(=O)N(C)C)s3)c2cc1OC", "note": "(stereo unspecified) [US20240083857, Example 280]", "values": [{"measurement": "pIC50", "value": "< 4.70"}]}
{"molecule": "CNC(=O)CNCc1ccccc1-c1ccc(C(C)Nc2nc(C)nc3cc(OC)c(OC)cc23)s1", "note": "(stereo unspecified) [US20240083857, Example 282]", "values": [{"measurement": "pIC50", "value": "< 4.70"}]}
{"molecule": "COCCNC(=O)CNCc1ccccc1-c1ccc(C(C)Nc2nc(C)nc3cc(OC)c(OC)cc23)s1", "note": "(stereo unspecified) [US20240083857, Example 283]", "values": [{"measurement": "pIC50", "value": "< 4.70"}]}
{"molecule": "COc1cc2nc(C)nc(NC(C)c3ccc(-c4ccccc4CNCC(=O)NCc4ccccc4)s3)c2cc1OC", "note": "(stereo unspecified) [US20240083857, Example 284]", "values": [{"measurement": "pIC50", "value": "< 4.70"}]}
{"molecule": "COc1cc2nc(C)nc(NC(C)c3ccc(-c4ccccc4CNCC(=O)Nc4ccccc4)s3)c2cc1OC", "note": "(stereo unspecified) [US20240083857, Example 289]", "values": [{"measurement": "pIC50", "value": "< 4.70"}]}
{"molecule": "Cc1nc(NC(C)c2ccc(-c3ccccc3CN(C)C)s2)c2cc(N3CCCC3)ccc2n1", "note": "(stereo unspecified) [US20240083857, Example 415]", "values": [{"measurement": "pIC50", "value": "< 4.70"}]}
